Test results: the supplement of paper PMC10307832

How the values were obtained:
Assay in all cases: relative viability (nuclei count vs DMSO), 5 days (fraction); higher = more cells survive
ChaGo-K-1 = tested on: ChaGo-K-1
Summary of the method: (§1)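 Each reported value is a median over duplicate plates. It expresses relative viability: treated-well nuclei count divided by vehicle-well nuclei count. Lung cancer cell lines in 1536-well plates were dosed by pin tool a day after seeding, alone with one drug or with a fixed anchor-drug dose plus five library-drug doses (not always all listed) in √10 steps, and nuclei were counted after 5 days.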

EMC-BAC-2 = tested on: EMC-BAC-2
Summary of the method: as §1

LCLC-97TM1 = tested on: LCLC-97TM1
Summary of the method: as §1

LXF-289 = tested on: LXF-289
Summary of the method: as §1

NCI-H1395 = tested on: NCI-H1395
Summary of the method: as §1

NCI-H1651 = tested on: NCI-H1651
Summary of the method: as §1

NCI-H1734 = tested on: NCI-H1734
Summary of the method: as §1

NCI-H1793 = tested on: NCI-H1793
Summary of the method: as §1

NCI-H1915 = tested on: NCI-H1915
Summary of the method: as §1

NCI-H1944 = tested on: NCI-H1944
Summary of the method: as §1

NCI-H2023 = tested on: NCI-H2023
Summary of the method: as §1

NCI-H2087 = tested on: NCI-H2087
Summary of the method: as §1

NCI-H2126 = tested on: NCI-H2126
Summary of the method: as §1

NCI-H2405 = tested on: NCI-H2405
Summary of the method: as §1

NCI-H3122 = tested on: NCI-H3122
Summary of the method: as §1

NCI-H322M = tested on: NCI-H322M
Summary of the method: as §1

NCI-H441 = tested on: NCI-H441
Summary of the method: as §1

NCI-H522 = tested on: NCI-H522
Summary of the method: as §1

NCI-H596 = tested on: NCI-H596
Summary of the method: as §1

NCI-H650 = tested on: NCI-H650
Summary of the method: as §1

NCI-H661 = tested on: NCI-H661
Summary of the method: as §1

NCI-H838 = tested on: NCI-H838
Summary of the method: as §1

PC-14 = tested on: PC-14
Summary of the method: as §1

SW 1573 = tested on: SW 1573
Summary of the method: as §1

UMC-11 = tested on: UMC-11
Summary of the method: as §1

Cc1cn(-c2cc(NC(=O)c3ccc(C)c(Nc4nccc(-c5cccnc5)n4)c3)cc(C(F)(F)F)c2)cn1 [Nilotinib] + Nc1nc2[nH]cc(CCc3ccc(C(=O)N[C@@H](CCC(=O)O)C(=O)O)cc3)c2c(=O)[nH]1 [Pemetrexed] (partner 0.2 µM)
relative viability (ChaGo-K-1; first compound 0.001 µM): 0.27
relative viability (ChaGo-K-1; first compound 0.003162 µM): 0.244
relative viability (ChaGo-K-1; first compound 0.01 µM): 0.228
relative viability (ChaGo-K-1; first compound 0.03162 µM): 0.229
relative viability (ChaGo-K-1; first compound 0.1 µM): 0.215
relative viability (EMC-BAC-2; first compound 0.001 µM): 0.427
relative viability (EMC-BAC-2; first compound 0.003162 µM): 0.618
relative viability (EMC-BAC-2; first compound 0.01 µM): 0.471
relative viability (EMC-BAC-2; first compound 0.03162 µM): 0.46
relative viability (EMC-BAC-2; first compound 0.1 µM): 0.437
relative viability (LCLC-97TM1; first compound 0.001 µM): 0.18
relative viability (LCLC-97TM1; first compound 0.003162 µM): 0.165
relative viability (LCLC-97TM1; first compound 0.01 µM): 0.175
relative viability (LCLC-97TM1; first compound 0.03162 µM): 0.183
relative viability (LCLC-97TM1; first compound 0.1 µM): 0.0978
relative viability (LXF-289; first compound 0.001 µM): 0.836
relative viability (LXF-289; first compound 0.003162 µM): 1.07
relative viability (LXF-289; first compound 0.01 µM): 1.01
relative viability (LXF-289; first compound 0.03162 µM): 0.878
relative viability (LXF-289; first compound 0.1 µM): 0.519
relative viability (NCI-H1395; first compound 0.001 µM): 1
relative viability (NCI-H1395; first compound 0.01 µM): 0.607
relative viability (NCI-H1395; first compound 0.03162 µM): 0.642
relative viability (NCI-H1395; first compound 0.1 µM): 0.517
relative viability (NCI-H1651; first compound 0.001 µM): 0.571
relative viability (NCI-H1651; first compound 0.003162 µM): 0.616
relative viability (NCI-H1651; first compound 0.01 µM): 0.732
relative viability (NCI-H1651; first compound 0.03162 µM): 0.556
relative viability (NCI-H1651; first compound 0.1 µM): 0.249
relative viability (NCI-H1734; first compound 0.001 µM): 0.443
relative viability (NCI-H1734; first compound 0.003162 µM): 0.346
relative viability (NCI-H1734; first compound 0.01 µM): 0.364
relative viability (NCI-H1734; first compound 0.03162 µM): 0.388
relative viability (NCI-H1734; first compound 0.1 µM): 0.31
relative viability (NCI-H1793; first compound 0.001 µM): 0.996
relative viability (NCI-H1793; first compound 0.003162 µM): 0.965
relative viability (NCI-H1793; first compound 0.01 µM): 1.07
relative viability (NCI-H1793; first compound 0.03162 µM): 0.903
relative viability (NCI-H1793; first compound 0.1 µM): 0.359
relative viability (NCI-H1915; first compound 0.001 µM): 0.435
relative viability (NCI-H1915; first compound 0.003162 µM): 0.427
relative viability (NCI-H1915; first compound 0.01 µM): 0.532
relative viability (NCI-H1915; first compound 0.03162 µM): 0.449
relative viability (NCI-H1915; first compound 0.1 µM): 0.438
relative viability (NCI-H1944; first compound 0.001 µM): 0.56
relative viability (NCI-H1944; first compound 0.003162 µM): 0.519
relative viability (NCI-H1944; first compound 0.01 µM): 0.566
relative viability (NCI-H1944; first compound 0.03162 µM): 0.578
relative viability (NCI-H1944; first compound 0.1 µM): 0.265
relative viability (NCI-H2023; first compound 0.001 µM): 0.213
relative viability (NCI-H2023; first compound 0.003162 µM): 0.264
relative viability (NCI-H2023; first compound 0.01 µM): 0.223
relative viability (NCI-H2023; first compound 0.03162 µM): 0.189
relative viability (NCI-H2023; first compound 0.1 µM): 0.14
relative viability (NCI-H2087; first compound 0.001 µM): 0.67
relative viability (NCI-H2087; first compound 0.003162 µM): 0.745
relative viability (NCI-H2087; first compound 0.01 µM): 0.555
relative viability (NCI-H2087; first compound 0.03162 µM): 0.614
relative viability (NCI-H2087; first compound 0.1 µM): 0.341
relative viability (NCI-H2126; first compound 0.001 µM): 0.68
relative viability (NCI-H2126; first compound 0.003162 µM): 0.767
relative viability (NCI-H2126; first compound 0.01 µM): 0.79
relative viability (NCI-H2126; first compound 0.03162 µM): 0.656
relative viability (NCI-H2126; first compound 0.1 µM): 0.47
relative viability (NCI-H2405; first compound 0.001 µM): 1.03
relative viability (NCI-H2405; first compound 0.003162 µM): 0.91
relative viability (NCI-H2405; first compound 0.01 µM): 0.924
relative viability (NCI-H2405; first compound 0.03162 µM): 0.699
relative viability (NCI-H2405; first compound 0.1 µM): 0.614
relative viability (NCI-H3122; first compound 0.001 µM): 0.18
relative viability (NCI-H3122; first compound 0.003162 µM): 0.226
relative viability (NCI-H3122; first compound 0.01 µM): 0.212
relative viability (NCI-H3122; first compound 0.03162 µM): 0.2
relative viability (NCI-H3122; first compound 0.1 µM): 0.195
relative viability (NCI-H322M; first compound 0.001 µM): 0.757
relative viability (NCI-H322M; first compound 0.003162 µM): 0.774
relative viability (NCI-H322M; first compound 0.01 µM): 0.576
relative viability (NCI-H322M; first compound 0.03162 µM): 0.593
relative viability (NCI-H322M; first compound 0.1 µM): 0.645
relative viability (NCI-H441; first compound 0.001 µM): 0.261
relative viability (NCI-H441; first compound 0.003162 µM): 0.26
relative viability (NCI-H441; first compound 0.01 µM): 0.225
relative viability (NCI-H441; first compound 0.03162 µM): 0.229
relative viability (NCI-H441; first compound 0.1 µM): 0.186
relative viability (NCI-H522; first compound 0.01 µM): 1.21
relative viability (NCI-H522; first compound 0.03162 µM): 0.949
relative viability (NCI-H522; first compound 0.1 µM): 0.792
relative viability (NCI-H596; first compound 0.001 µM): 0.49
relative viability (NCI-H596; first compound 0.003162 µM): 0.423
relative viability (NCI-H596; first compound 0.01 µM): 0.491
relative viability (NCI-H596; first compound 0.03162 µM): 0.513
relative viability (NCI-H596; first compound 0.1 µM): 0.371
relative viability (NCI-H650; first compound 0.001 µM): 0.887
relative viability (NCI-H650; first compound 0.003162 µM): 0.86
relative viability (NCI-H650; first compound 0.01 µM): 1.12
relative viability (NCI-H650; first compound 0.03162 µM): 0.914
relative viability (NCI-H650; first compound 0.1 µM): 0.746
relative viability (NCI-H661; first compound 0.001 µM): 0.966
relative viability (NCI-H661; first compound 0.003162 µM): 1.03
relative viability (NCI-H661; first compound 0.01 µM): 1.07
relative viability (NCI-H661; first compound 0.03162 µM): 0.888
relative viability (NCI-H661; first compound 0.1 µM): 0.893
relative viability (NCI-H838; first compound 0.001 µM): 0.246
relative viability (NCI-H838; first compound 0.003162 µM): 0.258
relative viability (NCI-H838; first compound 0.01 µM): 0.261
relative viability (NCI-H838; first compound 0.03162 µM): 0.252
relative viability (NCI-H838; first compound 0.1 µM): 0.228
relative viability (PC-14; first compound 0.001 µM): 0.139
relative viability (PC-14; first compound 0.003162 µM): 0.19
relative viability (PC-14; first compound 0.01 µM): 0.0904
relative viability (PC-14; first compound 0.03162 µM): 0.0585
relative viability (PC-14; first compound 0.1 µM): 0.0757
relative viability (SW 1573; first compound 0.001 µM): 0.801
relative viability (SW 1573; first compound 0.003162 µM): 0.994
relative viability (SW 1573; first compound 0.01 µM): 0.91
relative viability (SW 1573; first compound 0.03162 µM): 0.541
relative viability (SW 1573; first compound 0.1 µM): 0.171
relative viability (UMC-11; first compound 0.001 µM): 0.789
relative viability (UMC-11; first compound 0.003162 µM): 0.914
relative viability (UMC-11; first compound 0.01 µM): 0.857
relative viability (UMC-11; first compound 0.03162 µM): 0.495
relative viability (UMC-11; first compound 0.1 µM): 0.631
